# Source: patent US20250186408A1, “TREATMENT OF PHARMACORESISTANT EPILEPSY” (Katholieke Universiteit Leuven, priority 2021, published 2025)
# Entries after “also recorded” stand apart in the source; their conditions may differ.
# What was measured:
# [1] = system: EKP-induced seizure behaviour in zebrafish larvae; assay: Zebrafish ethyl ketopentanoate (EKP) seizure model, behavioural analysis; assay type: in vivo, zebrafish (Danio rerio); settings: for active in the behavioural assay / tolerated in the behavioural assay: 5 dpf larvae, 2 h; for activity against EKP-induced drug-resistant seizures (behavioural) / reduction in EKP-induced drug-resistant seizures (non-significant): maximum tolerated concentration, 7-day-old larvae (FIG. 3); for activity against EKP-induced drug-resistant seizures (behavioural) / reduction in EKP-induced drug-resistant seizures (non-significant) / reduction in EKP-induced seizure behaviour (non-significant): 2 h incubation; for reduction in EKP-induced seizure behaviour (non-significant): 5-day-old larvae; for antiseizure activity at the behavioural level (in words): FIG. 5 and FIG. 3
# Description: Experiments were performed as described in (16). In brief, a single 5 or 7 dpf larva was placed in each well of a 96-well plate and treated with either VHC (embryo medium with 1% DMSO) or test compound (dissolved in embryo medium, final solvent concentration of 1% DMSO) in a 100 μL volume. Larvae were incubated in the dark for 2 h at 28° C., whereafter 100 μL of either VHC (embryo medium with 1% DMSO) or 600 μM EKP (dissolved in embryo medium, final solvent concentration of 1% DMSO, 300 μM working concentration) was added to each well. Next, within 5 min the 96-well plate was placed in an automated tracking device (ZebraBox Viewpoint, France) and larval behaviour was video recorded for 30 min. The complete procedure was performed in dark conditions using infrared light. Total locomotor activity was recorded by ZebraLab software (Viewpoint, France) and expressed in actinteg units, which is the sum of pixel changes detected during the defined time interval (5 min). Larval behaviour was depicted as mean actinteg units per 5 min during the 30 min recording period and over consecutive time intervals. Data are pooled from independent experiments and expressed as mean±SD.
# In our search for novel antiseizure compounds with the potential to treat drug-resistant seizures, the zebrafish EKP seizure model was used for hit identification and as critical gate-keeper for further investigation in the pharmacoresistant mouse 6-Hz (44 mA) psychomotor seizure model. An automated behavioural analysis was done of 7-day-old zebrafish larvae using video tracking (ViewPoint, France).
# The compounds were tested in 5-day-old zebrafish larvae at 2 and/or 10 μM, depending on their tolerability, after 2 h incubation time. […] Among the antiseizure hits were compounds from 10 out of 11 classes tested, namely, propynones, propynals, propynols, propenones, amides, quinolinones, naphthyridinones, thiopyranoxides, pyrazolopyridines and indazoles.
# [2] = system: EKP-induced epileptiform discharges in zebrafish larvae; assay: Zebrafish EKP seizure model, electrophysiology (non-invasive LFP recordings, PSD analysis); assay type: in vivo, zebrafish (Danio rerio); settings: 7 dpf larvae; for efficacy against EKP-induced epileptiform discharges 2 μM / efficacy against EKP-induced epileptiform discharges 10 μM: 22 h incubation, mean, normalized PSD 20-90 Hz; for effect on EKP-induced elevated PSD (in words): 22 h
# Description: Non-invasive LFP recordings were measured from the midbrain (optic tectum) of 7 dpf zebrafish larvae pre-incubated with VHC only, EKP only, or compound and EKP. […] These steps occurred at 28° C., while further manipulation and electrophysiological recordings occurred at room temperature (±21° C.) and were performed as described before (16, 27). Each recording lasted 600 seconds.
# A power spectral density (PSD) analysis of the recordings was performed using MatLab R2019 software (MATrix LABoratory, USA) as described in (26). The PSD estimate of each LFP recording was summed over each 10 Hz frequency band, ranging from 0 to 160 Hz. Next, the PSD estimates were normalized against the VHC control. Data are expressed as mean±SEM PSD per larva and per condition over the 20-90 Hz region. Outliers were identified via the ROUT test (Q=1%).
# PSD analysis assumes that the epileptiform activity manifests as a high-power oscillation at certain frequencies (26). Thus, if epileptic activity occurs often during the recording an elevated PSD estimate should be found at the corresponding frequency band(s) (26).
# male NMRI mice = assay: Mouse 6-Hz (44 mA) psychomotor seizure model; assay type: in vivo; settings: for mean seizure duration / dose-response relationship (in words): 30 min before stimulation; for dose-response relationship (in words): i.p.
# Description: The antiseizure activity of compounds was investigated in the mouse 6-Hz (44 mA) psychomotor seizure model as described before (27). […] Seizure behaviour was video recorded and seizure durations were determined by blinded video analysis by experienced researchers, familiar with the different seizure characteristics. Data are expressed as mean±SD.
# The 6-Hz 44 mA model is an acute model of pharmacoresistant focal impaired awareness seizures, previously referred to as complex partial or psychomotor seizures that are induced by a low frequency, long duration corneal electrical stimulation (6 Hz, 0.2 ms rectangular pulse width, 3 s duration, 44 mA). Seizures are typically characterized by a clonic phase and stereotypical automatic behaviours like stun, forelimb clonus, Straub tail and vibrissae twitching.
smiles,measurement,setting,value
"Nc1ncccc1C(=O)C#Cc1ccc(Cl)c(Cl)c1 [Compound 1.13, 1-(2-aminopyridin-3-yl)-3-(3,4-dichlorophenyl)prop-2-yn-1-one]",active in the behavioural assay,[1],active
same,tolerated in the behavioural assay,[1],tolerated
"O=C(C#Cc1cccc(Cl)c1)c1cccnc1Cl [Compound 1.20, 3-(3-chlorophenyl)-1-(2-chloropyridin-3-yl)prop-2-yn-1-one]",active in the behavioural assay,[1],active
same,tolerated in the behavioural assay,[1],tolerated
"O=C(C#Cc1cccc(Cl)c1)c1cccnc1N1CCOCC1 [Compound 1.21, 3-(3-chlorophenyl)-1-(2-morpholinopyridin-3-yl)prop-2-yn-1-one]",active in the behavioural assay,[1],active
same,tolerated in the behavioural assay,[1],tolerated
"CC(C)(C)c1ccc(C#CC(=O)c2cccnc2N)cc1 [Compound 1.22, 1-(2-aminopyridin-3-yl)-3-(4-(tert-butyl)phenyl)prop-2-yn-1-one]",efficacy against EKP-induced epileptiform discharges 2 μM,[2]; 2 μM,45%
same,activity against EKP-induced drug-resistant seizures (behavioural),[1],active; also recorded: most effective
"CCCCCCC#CC(=O)c1cccnc1N [Compound 1.23, 1-(2-aminopyridin-3-yl)non-2-yn-1-one]",efficacy against EKP-induced epileptiform discharges 2 μM,[2]; 2 μM,31%
same,efficacy against EKP-induced epileptiform discharges 10 μM,[2]; 10 μM,−25%
same,reduction in EKP-induced drug-resistant seizures (non-significant),[1],approximately 20%
"O=C(C#Cc1ccc(Cl)cc1)c1ccccc1 [Compound 1.31, 3-(4-chlorophenyl)-1-phenylprop-2-yn-1-one]",active in the behavioural assay,[1],active
same,tolerated in the behavioural assay,[1],tolerated
"O=C(C#Cc1cccc(F)c1)c1ccccc1 [Compound 1.35, 3-(3-fluorophenyl)-1-phenylprop-2-yn-1-one]",active in the behavioural assay,[1],active
same,tolerated in the behavioural assay,[1],tolerated
"CC(C)(C)c1ccc(C#CCc2ccccc2)cc1 [Compound 4.1, 1-(tert-butyl)-4-(3-phenylprop-1-yn-1-yl)benzene]",efficacy against EKP-induced epileptiform discharges 2 μM,[2]; 2 μM,38%
same,reduction in EKP-induced seizure behaviour (non-significant),[1]; 2 μM,approximately 23%
same,reduction in EKP-induced seizure behaviour (non-significant),[1]; 10 μM,~19%
same,antiseizure activity at the behavioural level (in words),[1],did not show significant activity
"Nc1ncccc1C(=O)N1CCN(c2cccc(Cl)c2)CC1 [Compound 6.1, (2-aminopyridin-3-yl)(4-(3-chlorophenyl)piperazin-1-yl)methanone]",efficacy against EKP-induced epileptiform discharges 2 μM,[2]; 2 μM,61%
same,efficacy against EKP-induced epileptiform discharges 10 μM,[2]; 10 μM,10%
same,mean seizure duration,male NMRI mice; 30 mg/kg i.p.,15.5 s
same,mean seizure duration,male NMRI mice; 100 mg/kg i.p.,4.3 s
same,mean seizure duration,male NMRI mice; 300 mg/kg i.p.,0.5 s
same,mean seizure duration,male NMRI mice; 600 mg/kg i.p.,0.5 s
same,dose-response relationship (in words),male NMRI mice,displayed a dose-response relationship
"CC(C)(C)c1ccc(-c2cc(=O)c3ccccc3[nH]2)cc1 [Compound 7.1, 2-(4-(tert-butyl)phenyl)quinolin-4(1H)-one]",effect on EKP-induced elevated PSD (in words),[2]; 2 μM,significantly elevated the PSD
same,efficacy against EKP-induced epileptiform discharges 2 μM,[2]; 2 μM,−118%
same,effect on EKP-induced elevated PSD (in words),[2]; 10 μM,significantly elevated the PSD
same,efficacy against EKP-induced epileptiform discharges 10 μM,[2]; 10 μM,−217%
same,antiseizure activity at the behavioural level (in words),[1],significant antiseizure activity
same,activity against EKP-induced drug-resistant seizures (behavioural),[1],active
"CC(C)(C)c1ccc(-c2cc(=O)c3cccnc3[nH]2)cc1 [Compound 8.1, 2-(4-(tert-butyl)phenyl)-1,8-naphthyridin-4(1H)-one]",efficacy against EKP-induced epileptiform discharges 2 μM,[2]; 2 μM,57%
same,efficacy against EKP-induced epileptiform discharges 10 μM,[2]; 10 μM,−117%
same,mean seizure duration,male NMRI mice; 30 mg/kg i.p.,12.5 s
same,mean seizure duration,male NMRI mice; 100 mg/kg i.p.,9.7 s
same,mean seizure duration,male NMRI mice; 300 mg/kg i.p.,2.8 s
same,mean seizure duration,male NMRI mice; 600 mg/kg i.p.,0 s
same,dose-response relationship (in words),male NMRI mice,displayed a dose-response relationship
same,activity against EKP-induced drug-resistant seizures (behavioural),[1],active
"COc1ccc(C(=O)C#Cc2ccc(C)cc2)cc1 [I.1, 1-(4-methoxyphenyl)-3-(p-tolyl)prop-2-yn-1-one]",activity against EKP-induced drug-resistant seizures (behavioural),[1],active
"Cc1ccc(C#CC(=O)c2ccc([N+](=O)[O-])cc2)cc1 [I.2, 1-(4-nitrophenyl)-3-(p-tolyl)prop-2-yn-1-one]",activity against EKP-induced drug-resistant seizures (behavioural),[1],active
"CC(C)(C)c1ccc(C#CC(=O)c2ccc(N)cc2)cc1 [I.4, 1-(4-aminophenyl)-3-(4-(tert-butyl)phenyl)prop-2-yn-1-one]",activity against EKP-induced drug-resistant seizures (behavioural),[1],active
"CC(C)(C)c1ccc(C#CC(=O)c2ccccc2N)cc1 [I.5, 1-(2-aminophenyl)-3-(4-(tert-butyl)phenyl)prop-2-yn-1-one]",activity against EKP-induced drug-resistant seizures (behavioural),[1],active
"CCCCCCC#CC(=O)c1ccccc1N [I.6, 1-(2-aminophenyl)non-2-yn-1-one]",reduction in EKP-induced drug-resistant seizures (non-significant),[1],approximately 20%
"CCCCCCC#CC(=O)c1ccc(C(=O)OCC)cc1 [I.7, ethyl 4-(non-2-ynoyl)benzoate]",reduction in EKP-induced drug-resistant seizures (non-significant),[1],approximately 20%
"CC(C)(C)c1ccc(C#CC(=O)c2ccsc2)cc1 [I.8, 3-(4-(tert-butyl)phenyl)-1-(thiophen-3-yl)prop-2-yn-1-one]",activity against EKP-induced drug-resistant seizures (behavioural),[1],active
"CCCCCCC#CC(=O)c1ccsc1 [I.9, 1-(thiophen-3-yl)non-2-yn-1-one]",activity against EKP-induced drug-resistant seizures (behavioural),[1],active
"O=C(C#CC1CC1)c1ccsc1 [I.10, 3-cyclopropyl-1-(thiophen-3-yl)prop-2-yn-1-one]",activity against EKP-induced drug-resistant seizures (behavioural),[1],active
"Cc1ccncc1C(=O)C#Cc1ccc(C(C)(C)C)cc1 [I.11, 3-(4-(tert-butyl)phenyl)-1-(4-methylpyridin-3-yl)prop-2-yn-1-one]",activity against EKP-induced drug-resistant seizures (behavioural),[1],active
"CNc1ccccc1C(=O)C#Cc1ccc(C(C)(C)C)cc1 [I.14, 3-(4-(tert-butyl)phenyl)-1-(2-(methylamino)phenyl)prop-2-yn-1-one]",activity against EKP-induced drug-resistant seizures (behavioural),[1],active
"O=c1cc(-c2ccccc2)[nH]c2ccccc12 [III.1, 2-phenylquinolin-4(1H)-one]",reduction in EKP-induced drug-resistant seizures (non-significant),[1],approximately 20%
"CCCC(CCC)C(=O)[O-].[Na+] [valproate, sodium valproate, reference compound]",protection against the electrically induced seizures (in words),"male NMRI mice; 300 mg/kg i.p., positive control",completely protected
